Consider 3 compounds from paper PMC3720870, “Chiral Hydroxylation at the Mononuclear Nonheme Fe(II) Center of 4-(S) Hydroxymandelate Synthase – A Structure-Activity Relationship Analysis” (PLoS ONE, 2013).

The target of the assay is T1, Hms (Streptomyces coelicolor, UniProt Q9Z4X7).
T1 construct: gene SCO3229; full-length, C-terminal Strep-tag II kept, expressed in E. coli BL21(DE3) from pKYB1; monomer, ~45 kDa
T1 sequence (Q9Z4X7 1-371): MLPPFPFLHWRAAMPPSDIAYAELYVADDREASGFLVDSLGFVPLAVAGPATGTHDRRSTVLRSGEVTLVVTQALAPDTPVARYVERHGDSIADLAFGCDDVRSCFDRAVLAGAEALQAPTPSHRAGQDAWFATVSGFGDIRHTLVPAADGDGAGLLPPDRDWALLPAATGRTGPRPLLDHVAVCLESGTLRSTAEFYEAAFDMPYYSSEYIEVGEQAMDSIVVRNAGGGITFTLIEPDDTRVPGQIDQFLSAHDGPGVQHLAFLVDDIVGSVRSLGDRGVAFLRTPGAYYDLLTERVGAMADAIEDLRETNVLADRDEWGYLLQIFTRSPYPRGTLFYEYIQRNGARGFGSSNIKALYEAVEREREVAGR
As to the kind of experiment: O2 consumption, micro-optode, steady state. Type of assay: biochemical. The note with it: apparent constant at air saturation; 20 mM Tris/HCl pH 7.5, 25 °C; no added Fe(II).

By Km is commonly meant the concentration of substrate that gives half-maximal velocity.

In the case of `O=C(O)C(=O)CCc1ccccc1` [OPB, 2-Oxo-4-phenylbutanoic acid], the Km stood at 35 ± 20 µM. For `COc1ccc(CC(=O)C(=O)O)cc1` [VII, p-Methoxyphenylpyruvic acid] the value was 160 ± 70 µM; for `O=C(O)C(=O)Cc1ccccc1` [PP, Phenylpyruvic acid], 353 ± 87 µM.
